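Cells were grown in 96-well plates and exposed to each compound for 48 hours at five concentrations; endpoints were interpolated linearly between bracketing concentrations, or set to the highest concentration if not reached. TGI is the concentration that stops growth completely.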
Key:
Test in all cases: NCI tumour cell line growth inhibition, 48 h
CCRF-CEM leukemia = test system: CCRF-CEM leukemia
SK-MEL-5 melanoma = test system: SK-MEL-5 melanoma
OVCAR-3 ovarian = test system: OVCAR-3 ovarian
KM12 colon = test system: KM12 colon
NCI/ADR-RES ovarian = test system: NCI/ADR-RES ovarian
RXF 393 renal = test system: RXF 393 renal
NCI-H226 lung = test system: NCI-H226 lung
LOX IMVI melanoma = test system: LOX IMVI melanoma
IGROV1 ovarian = test system: IGROV1 ovarian
MDA-N = test system: MDA-N
SK-MEL-2 melanoma = test system: SK-MEL-2 melanoma
NCI-H522 lung = test system: NCI-H522 lung
NCI-H23 lung = test system: NCI-H23 lung
EKVX NSCLC = test system: EKVX NSCLC
HT29 colon = test system: HT29 colon
MDA-MB-231 breast = test system: MDA-MB-231 breast
DU-145 prostate = test system: DU-145 prostate
HCC-2998 colon = test system: HCC-2998 colon
SNB-75 CNS = test system: SNB-75 CNS
A549 NSCLC = test system: A549 NSCLC
RPMI-8226 leukemia = test system: RPMI-8226 leukemia
SW-620 colon = test system: SW-620 colon
SF-539 CNS = test system: SF-539 CNS
M14 melanoma = test system: M14 melanoma
ACHN renal = test system: ACHN renal
SNB-19 CNS = test system: SNB-19 CNS
OVCAR-5 ovarian = test system: OVCAR-5 ovarian
SN12C renal = test system: SN12C renal
SR leukemia = test system: SR leukemia
HL-60(TB) leukemia = test system: HL-60(TB) leukemia
SF-268 CNS = test system: SF-268 CNS
UACC-62 melanoma = test system: UACC-62 melanoma
MDA-MB-435 = test system: MDA-MB-435
NCI-H460 lung = test system: NCI-H460 lung
TK-10 renal = test system: TK-10 renal
SK-OV-3 ovarian = test system: SK-OV-3 ovarian
HCT-15 colon = test system: HCT-15 colon
OVCAR-8 ovarian = test system: OVCAR-8 ovarian
A498 renal = test system: A498 renal
OVCAR-4 ovarian = test system: OVCAR-4 ovarian
PC-3 prostate = test system: PC-3 prostate
U251 CNS = test system: U251 CNS
HOP-92 NSCLC = test system: HOP-92 NSCLC
HCT-116 colon = test system: HCT-116 colon
BT-549 breast = test system: BT-549 breast
CAKI-1 renal = test system: CAKI-1 renal
MOLT-4 leukemia = test system: MOLT-4 leukemia
SK-MEL-28 melanoma = test system: SK-MEL-28 melanoma
SF-295 CNS = test system: SF-295 CNS
K-562 leukemia = test system: K-562 leukemia
HOP-62 NSCLC = test system: HOP-62 NSCLC
786-0 renal = test system: 786-0 renal
COLO 205 colon = test system: COLO 205 colon
UACC-257 melanoma = test system: UACC-257 melanoma
MCF7 breast = test system: MCF7 breast
HS 578T breast = test system: HS 578T breast
UO-31 renal = test system: UO-31 renal
MALME-3M melanoma = test system: MALME-3M melanoma

## O=C(/C=C\c1ccc(-c2ccccc2)cc1)c1cccs1
CCRF-CEM leukemia
  TGI: 12.5 µM
SK-MEL-5 melanoma
  TGI: > 100 µM
OVCAR-3 ovarian
  TGI: > 100 µM
KM12 colon
  TGI: > 100 µM
NCI/ADR-RES ovarian
  TGI: > 100 µM
RXF 393 renal
  TGI: 46.4 µM
NCI-H226 lung
  TGI: > 100 µM
LOX IMVI melanoma
  TGI: > 100 µM
IGROV1 ovarian
  TGI: > 94.3 µM
MDA-N
  TGI: > 100 µM
SK-MEL-2 melanoma
  TGI: > 100 µM
NCI-H522 lung
  TGI: > 30.4 µM
NCI-H23 lung
  TGI: > 100 µM
EKVX NSCLC
  TGI: > 100 µM
HT29 colon
  TGI: > 50.3 µM
MDA-MB-231 breast
  TGI: > 100 µM
DU-145 prostate
  TGI: > 100 µM
HCC-2998 colon
  TGI: > 100 µM
SNB-75 CNS
  TGI: > 60.4 µM
A549 NSCLC
  TGI: > 100 µM
RPMI-8226 leukemia
  TGI: > 100 µM
SW-620 colon
  TGI: > 100 µM
SF-539 CNS
  TGI: > 100 µM
M14 melanoma
  TGI: > 100 µM
ACHN renal
  TGI: > 100 µM
SNB-19 CNS
  TGI: > 100 µM
OVCAR-5 ovarian
  TGI: > 100 µM
SN12C renal
  TGI: > 100 µM
SR leukemia
  TGI: > 100 µM
HL-60(TB) leukemia
  TGI: > 31 µM
SF-268 CNS
  TGI: > 75 µM
UACC-62 melanoma
  TGI: > 100 µM
MDA-MB-435
  TGI: > 100 µM
NCI-H460 lung
  TGI: > 100 µM
TK-10 renal
  TGI: > 100 µM
SK-OV-3 ovarian
  TGI: > 100 µM
HCT-15 colon
  TGI: > 100 µM
OVCAR-8 ovarian
  TGI: > 100 µM
A498 renal
  TGI: > 27.1 µM
OVCAR-4 ovarian
  TGI: > 100 µM
PC-3 prostate
  TGI: > 100 µM
U251 CNS
  TGI: > 100 µM
HOP-92 NSCLC
  TGI: > 100 µM
HCT-116 colon
  TGI: > 100 µM
BT-549 breast
  TGI: > 100 µM
CAKI-1 renal
  TGI: > 100 µM
MOLT-4 leukemia
  TGI: > 28.1 µM
SK-MEL-28 melanoma
  TGI: > 100 µM
SF-295 CNS
  TGI: > 100 µM
K-562 leukemia
  TGI: > 100 µM
HOP-62 NSCLC
  TGI: > 100 µM
786-0 renal
  TGI: > 100 µM
COLO 205 colon
  TGI: > 100 µM
UACC-257 melanoma
  TGI: > 100 µM
MCF7 breast
  TGI: > 100 µM
HS 578T breast
  TGI: > 81 µM
UO-31 renal
  TGI: > 100 µM

## C=C(C)C[C@H](Sc1nc2ccccc2s1)[C@H](C)O
SK-MEL-5 melanoma
  TGI: 36.8 µM
OVCAR-3 ovarian
  TGI: 75.7 µM
KM12 colon
  TGI: > 100 µM
NCI/ADR-RES ovarian
  TGI: > 100 µM
RXF 393 renal
  TGI: > 100 µM
NCI-H226 lung
  TGI: 74.1 µM
LOX IMVI melanoma
  TGI: > 100 µM
IGROV1 ovarian
  TGI: > 100 µM
MDA-N
  TGI: > 100 µM
SK-MEL-2 melanoma
  TGI: 69.9 µM
NCI-H522 lung
  TGI: 81.9 µM
NCI-H23 lung
  TGI: > 100 µM
EKVX NSCLC
  TGI: > 100 µM
HT29 colon
  TGI: > 100 µM
MDA-MB-231 breast
  TGI: > 100 µM
DU-145 prostate
  TGI: > 100 µM
HCC-2998 colon
  TGI: > 100 µM
A549 NSCLC
  TGI: > 100 µM
RPMI-8226 leukemia
  TGI: 98.4 µM
SW-620 colon
  TGI: > 100 µM
SF-539 CNS
  TGI: > 100 µM
M14 melanoma
  TGI: > 100 µM
ACHN renal
  TGI: > 100 µM
SNB-19 CNS
  TGI: > 100 µM
OVCAR-5 ovarian
  TGI: > 100 µM
SN12C renal
  TGI: > 100 µM
SR leukemia
  TGI: > 100 µM
HL-60(TB) leukemia
  TGI: 44.9 µM
SF-268 CNS
  TGI: > 100 µM
UACC-62 melanoma
  TGI: > 100 µM
MALME-3M melanoma
  TGI: 72 µM
MDA-MB-435
  TGI: > 100 µM
NCI-H460 lung
  TGI: > 100 µM
TK-10 renal
  TGI: > 100 µM
HCT-15 colon
  TGI: > 100 µM
OVCAR-8 ovarian
  TGI: > 100 µM
A498 renal
  TGI: 79 µM
OVCAR-4 ovarian
  TGI: > 100 µM
PC-3 prostate
  TGI: 63.8 µM
U251 CNS
  TGI: > 100 µM
HOP-92 NSCLC
  TGI: > 100 µM
HCT-116 colon
  TGI: > 100 µM
BT-549 breast
  TGI: > 100 µM
CAKI-1 renal
  TGI: > 100 µM
MOLT-4 leukemia
  TGI: 43 µM
SK-MEL-28 melanoma
  TGI: > 100 µM
SF-295 CNS
  TGI: > 100 µM
K-562 leukemia
  TGI: > 100 µM
HOP-62 NSCLC
  TGI: > 100 µM
786-0 renal
  TGI: > 100 µM
COLO 205 colon
  TGI: > 100 µM
UACC-257 melanoma
  TGI: > 100 µM
MCF7 breast
  TGI: > 100 µM
HS 578T breast
  TGI: > 100 µM
UO-31 renal
  TGI: > 100 µM

## Cc1ccc(-c2c(C#N)c(N)[nH]c(=S)c2C#N)cc1
SK-MEL-5 melanoma
  TGI: > 100 µM
OVCAR-3 ovarian
  TGI: > 100 µM
KM12 colon
  TGI: > 100 µM
NCI/ADR-RES ovarian
  TGI: > 100 µM
RXF 393 renal
  TGI: 46.5 µM
NCI-H226 lung
  TGI: > 100 µM
LOX IMVI melanoma
  TGI: > 100 µM
IGROV1 ovarian
  TGI: > 100 µM
MDA-N
  TGI: 41.3 µM
SK-MEL-2 melanoma
  TGI: 72.6 µM
NCI-H522 lung
  TGI: 55.6 µM
NCI-H23 lung
  TGI: > 100 µM
EKVX NSCLC
  TGI: 66.1 µM
HT29 colon
  TGI: > 100 µM
MDA-MB-231 breast
  TGI: > 100 µM
DU-145 prostate
  TGI: > 100 µM
HCC-2998 colon
  TGI: > 100 µM
A549 NSCLC
  TGI: > 100 µM
RPMI-8226 leukemia
  TGI: 65.8 µM
SW-620 colon
  TGI: > 100 µM
SF-539 CNS
  TGI: > 100 µM
M14 melanoma
  TGI: > 100 µM
ACHN renal
  TGI: > 100 µM
SNB-19 CNS
  TGI: > 100 µM
OVCAR-5 ovarian
  TGI: > 100 µM
SN12C renal
  TGI: 76 µM
SR leukemia
  TGI: 66.9 µM
HL-60(TB) leukemia
  TGI: 52.8 µM
SF-268 CNS
  TGI: > 100 µM
UACC-62 melanoma
  TGI: > 100 µM
MALME-3M melanoma
  TGI: 62.2 µM
MDA-MB-435
  TGI: 65.4 µM
NCI-H460 lung
  TGI: > 100 µM
TK-10 renal
  TGI: > 100 µM
HCT-15 colon
  TGI: > 100 µM
OVCAR-8 ovarian
  TGI: > 100 µM
A498 renal
  TGI: > 100 µM
OVCAR-4 ovarian
  TGI: > 100 µM
PC-3 prostate
  TGI: > 100 µM
U251 CNS
  TGI: > 100 µM
HOP-92 NSCLC
  TGI: > 100 µM
HCT-116 colon
  TGI: > 100 µM
BT-549 breast
  TGI: > 100 µM
CAKI-1 renal
  TGI: > 100 µM
MOLT-4 leukemia
  TGI: 76.9 µM
SK-MEL-28 melanoma
  TGI: > 100 µM
SF-295 CNS
  TGI: > 100 µM
K-562 leukemia
  TGI: > 100 µM
HOP-62 NSCLC
  TGI: > 100 µM
786-0 renal
  TGI: 77.5 µM
COLO 205 colon
  TGI: 69 µM
UACC-257 melanoma
  TGI: > 100 µM
MCF7 breast
  TGI: > 100 µM
HS 578T breast
  TGI: 51.4 µM
UO-31 renal
  TGI: > 100 µM
